# Experimental data: a melting point compilation (Tetko et al.; mined from patent text by program, amines drawn as free bases though some values may be those of a salt)
row,SMILES,melting point
1,Cn1ncc2[nH]c3ccc(Cc4cccc(C(=O)O)c4)cc3c(=O)c21,> 300 °C
2,O=C(Nc1cc2ccccc2cn1)c1ncccc1NCc1ccncc1,168 °C
3,CC(C)(C)OC(=O)[C@@H]1CS[C@H](c2ccccc2)N1C(=O)CNC(=O)Nc1cccc(C(=O)O)c1,134 °C
4,Nc1cc(C(=O)O)cc(OCc2ccccc2)c1C(=O)c1ccc(Cl)cc1,196 to 197 °C
5,Cc1nnc2ccc(-c3ccc(N)c(C(F)(F)F)c3)nn12,240 to 242 °C
6,CCCCc1oc2ccccc2c1C(=O)NCc1ccc2c(Br)c(O)ccc2c1,192 to 193 °C
7,N#CCOc1ccc(C(=O)c2ccccc2)c(Cl)c1Cl,110 to 112 °C
8,O=C(Nc1ccc([N+](=O)[O-])cc1)c1ccc(Nc2ccncc2)cc1,298 to 302 °C
9,CCCC(=O)c1ccccc1NC(C)=O,46.5 to 47 °C
10,CC(C(=O)O)c1ccc(C(=O)c2cc3ccsc3s2)cc1 (configuration not stated),150 °C
11,CC(C)CC(=O)Nc1cccc(-c2ccnc3c(-c4cccc(CN5CCOCC5)c4)cnn23)c1,170 to 173 °C
12,N#CC=C1CCN(c2ccc(N3C[C@@H](Cn4cc(CCC(=O)O)nn4)OC3=O)cc2)CC1,120 to 122 °C
13,COC(=O)C(=O)c1ccc(C#CCNC(=O)c2ccc3ccccc3c2)cc1,113 to 114 °C
14,O=C(O)CCc1ccc2c(c1)CCc1ccc(C(=O)O)cc1S2,233 to 235 °C
15,Cc1ccc(C(=O)Nc2ccccc2)cc1[N+](=O)[O-],147 to 148 °C
16,O=C1COc2cc3[nH]c(C(=O)N4CCC(Cc5ccccc5)CC4)cc3cc2N1,225 to 231 °C
17,C[Si](C)(C)c1ccc2c(c1)Cc1cc([Si](C)(C)C)ccc1-2,117 to 118 °C
18,COc1cc(N)c(Cl)cc1C(=O)NC1C2CCN(CC2)C1CN1CCCCC1 (configuration not stated),185 to 187 °C
19,CCCCCCCCCCCCNC(=S)NCCCCCCCCCCCC,75 to 78 °C
20,O=[N+]([O-])c1cc(Br)ccc1Cl,65 to 67 °C
21,CC12CCC(=O)C=C1CCC1C2=CCC2(C)C(=O)CCC12 (configuration not stated),196 to 202 °C
22,CC(NC(=O)C=Cc1ccccc1F)c1ccc2c(c1)N(C)CCC2 (configuration not stated),60 to 63 °C

row,SMILES,melting point
1,CC(Cc1ccc(Br)cc1)C(=O)O (configuration not stated),69 to 70 °C
2,COc1ccc2[nH]cc(C=C3OC(=O)N(Cc4cc(C(F)(F)F)cc(C(F)(F)F)c4)C3=O)c2c1,147 to 149 °C
3,Nc1cc(S(=O)c2ccc(-c3ccccc3)cc2)ccc1Cl (configuration not stated),134 to 137 °C
4,Oc1cccc2c1CCC(c1ccccn1)O2 (configuration not stated),246 to 248 °C
5,COCCNc1c([N+](=O)[O-])cnn1-c1c(Cl)cc(C(F)(F)F)cc1Cl,85 to 90 °C
6,N#CC(CCN1C2CCC1CC2)(c1ccccc1)c1ccccc1,79 to 81 °C
7,O=C(O)c1cccc(-c2ccnc3c(C(=O)c4cccs4)cnn23)c1,174 to 177 °C
8,O=C1NC(=NCc2ccccc2)C(c2ccc(Br)cc2)N1c1ccc2[nH]cnc2c1 (configuration not stated),244 °C
9,Clc1ncc(-c2ccc3ccncc3c2)c2ccccc12,169 to 170 °C
10,CCCCN(Cc1ccc2c(Br)c(OCc3nnn[nH]3)ccc2c1)C(=O)c1c(C)oc2ccccc12,204 to 206 °C
11,O=c1nc(-c2ccncc2O)nc2n(C3CCCC3)[nH]c(C(F)(F)F)c1-2,205 to 206 °C
12,CCC(=NO)c1ccc(Sc2cc(F)cc([C@@]3(OC)CCO[C@@H]3C)c2)cc1 (racemic),113 to 114 °C
13,CCC(Oc1ccc2ncccc2c1)C(=O)O (configuration not stated),78 to 80 °C
14,COC(=O)C[C@H](CCC(=O)OCc1ccccc1)NC(=O)OC(C)(C)C,97 to 98 °C
15,CC(C)[C@H](NC(=O)[C@H](Cc1ccccc1)NC(=O)c1ccccc1)C(=O)O,191 °C
16,O=C(Nc1ccc(-n2nc(C(F)(F)F)cc2C2CC2)cc1)c1ccncc1F,143 to 146 °C
17,COc1ccc(CN2CCC3(CCc4c3n(C)c3ccccc43)CC2)cc1,39 to 40 °C
18,FC(F)Sc1ccc(-c2ccccc2)cc1,56 to 57 °C
19,O=C1CN(C(=O)N2CCCC2)c2c(F)cccc2N1,126 to 132 °C
20,C[Si]1(CC(CN)CC(=O)O)CCCC1 (configuration not stated),133 to 135 °C
21,O=C(NC(CO)CO)c1cccc(-c2ccc3c(c2)C(c2ccc(Cl)cc2Cl)CC3)c1 (configuration not stated),135 to 157 °C
22,OCCc1ccc(-c2ccc(F)cc2F)c(F)c1,44 to 45 °C

row,SMILES,melting point
1,NC(=O)c1nnn(Cc2ccc(C(Cl)=C(Cl)Cl)cc2)c1N,200 to 203 °C
2,CC1N=C(NN2CCCCC2)NN=C1c1ccccc1 (configuration not stated),188 to 190 °C
3,CCC(CC)n1cc(C#N)nc(N2CCc3cc(Cl)cc(Cl)c32)c1=O,197 to 199 °C
4,CCCCCCCCOc1ccc(C(=O)Oc2ccc(-c3ccc(O)cc3)cc2)cc1,183 °C
5,CC12CCC3c4ccc(C(=O)O)cc4CCC3C1CCC2C(=O)C#Cc1ccccc1 (configuration not stated),174 to 178 °C
6,CN(c1ccc(O)cc1)c1ncnc2cc(Cl)ccc12,165 °C
7,COc1cc(-c2ccccc2)on1,69 to 71 °C
8,S=C(NCc1cccnc1)NC(Cc1cccc2ccccc12)=Nc1ccccc1,162 to 163 °C
9,O=C(O)CCCCCOc1ccc(CCc2ccncc2)cc1,180 to 182 °C
10,CCOC(=O)C(=CNCc1cnsn1)C(=O)c1cc(F)c(F)c(F)c1F,154 to 156 °C
11,CCOC(=O)c1cc(O)c(C(=O)c2ccc(C)cc2)c([N+](=O)[O-])c1,145 to 147 °C
12,Fc1ccc(-c2ccn(C3CCNCC3)c2-c2ccncc2)cc1,191 to 192 °C
13,NC(=O)CON=c1c2nccc3cccc(c32)n2cccc12,252 °C
14,O=c1[nH]c(-c2ccccc2)ncc1[N+](=O)[O-],264 to 266 °C
15,CN(C)CC/C=C/c1ccc2c(Nc3ccc(Sc4nccn4C)c(Cl)c3)c(C#N)cnc2c1,191 to 198 °C
16,CSc1ccc(C=O)c(Cl)c1,76 to 77 °C
17,O=C1c2cccc(OC(F)=C(F)F)c2C(=O)N1c1ccc(OC(F)=C(F)F)cc1,172 °C
18,NC(=O)C(O)(C(N)=O)c1ccccc1,159 °C
19,Nc1ccc(C(=O)c2c(F)cccc2F)c(N)n1,179 to 181 °C
20,O=Cc1c(-c2ccccc2)nn(-c2ccccc2)c1-c1ccccc1,159 to 160 °C
21,CC1CCCC(C)N1C(=O)C=Cc1ccc(C(F)(F)F)cc1 (configuration not stated),89 to 91 °C
22,COC(=O)c1ccc(C(=O)NC2CCC(NC(=O)c3ccc(C(=O)OC)cc3)CC2)cc1 (configuration not stated),> 350 °C

# The next lines start with the values.
row,melting point,SMILES
1,132 to 133 °C,COc1ccc(-c2cc(=O)n(Cc3ccc(F)cc3)nc2-c2ccc(OC)cc2)cc1
2,82 to 84 °C,COc1ccc2cc([C@H](C)C(=O)NOCC(=O)OC(C)(C)C)ccc2c1
3,100 to 103 °C,COc1cc2ccc(CC(=S)N3CCOCC3)cc2c(C)c1OC
4,68 to 78 °C,CCCNC(=O)CCc1ccc2c(c1)c(Cc1ccc(C(=O)O)cc1OC)cn2CCC
5,153 to 154 °C,Cc1nc2nccc(-c3cccc(C(F)(F)F)c3)n2n1
6,117 to 119 °C,CCCN(c1ccccc1)c1nc(C)nc(SC)c1[N+](=O)[O-]
7,233 to 234 °C,CCn1c(=O)c2c(nc(/C=C/c3ccc4c(c3)OCCO4)n2C)n(CC)c1=O
8,127 to 128 °C,Cc1nc(C)c(Cl)c(NCc2nccc(SCCCCBr)c2C)n1
9,128 °C,CC(C)(C)OC(=O)Cn1c(C(=O)O)cc2cc(N)ccc21
10,229 to 231 °C,COc1cccc2c1nc(C(F)F)n2-c1nc(N2CCOCC2)c2ncn(-c3cccnc3)c2n1
11,184 to 185 °C,N#CCOc1ccccc1S(N)(=O)=O
12,> 193 °C,Nc1nc(S(N)(=O)=O)c2ncn(C3OC(CO)C(O)C3O)c2n1 (configuration not stated)
13,205 to 206 °C,Nc1nc(-c2cc(Cl)ccc2Cl)nc(N2CC=CC2)n1
14,176 to 178 °C,COc1cccc2c1C(CC(C)=O)NC2=O (configuration not stated)
15,146 to 148 °C,COc1cc(OC)nc(C2(Cl)OC(=O)c3ncccc32)n1 (configuration not stated)
16,177 to 179 °C,COc1ccc(-c2nc3sccn3c2/C=C/C(=O)c2ccc[nH]2)cc1
17,262 °C,CCCn1c(=O)c2[nH]c(/C=C/c3ccc(OCC)cc3)nc2n(CCC)c1=O
18,156 to 157 °C,COc1cc2c(cc1OC)C(C)Cn1c-2cc(=Nc2c(C)cc(C)cc2C)n(C)c1=O (configuration not stated)

row,melting point,SMILES
1,176 to 178 °C,CC(C)(O)COc1c(-c2ccc(S(N)(=O)=O)cc2)cnn(-c2ccc(F)c(Cl)c2)c1=O
2,108 to 109 °C,COCCOc1cc2ncnc(Cl)c2cc1OCCOC
3,252 to 254 °C,COc1ccc(C=CC(=O)NNC(=O)CCc2cc(C(C)(C)C)c(O)c(C(C)(C)C)c2)cc1
4,170 °C,COc1nc(OC)nc(-n2cnc(S(C)(=O)=O)n2)n1
5,210 to 211 °C,CC1C(=O)c2cc(NS(C)(=O)=O)ccc2OC12CCN(CCc1ccccn1)CC2 (configuration not stated)
6,181 to 183 °C,COc1ccc(C2=NN(c3ccc(S(N)(=O)=O)cc3)C(=O)[C@H]3CC=CC[C@@H]23)cc1OC (relative stereo)
7,212 to 214 °C,COc1ccc(NC(C)=C2C(=O)OC(=O)C(C(C)=O)=C2O)cc1
8,177 to 180 °C,COc1cc([C@@H]2c3cc4c(cc3C=C[C@H]2C(=O)O)OCO4)cc(OC)c1OC (relative stereo)
9,298 to 300 °C,CCn1cc(C(=O)O)c(=O)c2cnc(N3CCN(C(C)=O)CC3)nc21
10,108 to 109 °C,Cc1nc(C)c(C(C)(O)c2cccnc2)s1 (configuration not stated)
11,112 to 114 °C,CCOC(=O)c1cnn(-c2ccc(OCC(C)(C)COC(=O)c3ccccc3)c(C#N)c2)c1
12,168 °C,"CN1CC(O)c2cc(S(N)(=O)=O)sc2S1(=O)=O (single isomer, unassigned; (+))"
13,204 to 206 °C,COc1cc2cnnc(N3CCC(CCN(C)C(=O)NC4CCCCC4)CC3)c2cc1OC
14,123 to 126 °C,Cn1ncnc1COc1nn2c(-c3ccccc3F)nnc2cc1C(F)(F)F
15,128 to 130 °C,COc1ccc(C)c(N2CCN(C(=O)Nc3cc4ccccc4nc3OC)CC2)c1
16,76 to 77 °C,CCOC(=O)C(C#N)(CCBr)c1cc(OC)c(OC)c(OC)c1 (configuration not stated)
17,126 to 128 °C,Cc1c(CC#N)cc(C(C)(C)C)c(O)c1C
18,83 to 84 °C,CCn1ncc2nc(C(=O)OCC#N)c(C)nc21
